Experiment: In-vitro confocal microscopy of markers containing fluorescent amphiphiles in PBS
Assay type: physicochemical
Details: LAP:GTH with co-solvent (5% PC or 10% EtOH)
Experimental: DOPE-RhB was dissolved in EtOH or triglycerides and added to the formulations in amounts resulting in the desired final concentrations (˜1.3*10^−3 ug/uL) in formulations consisting of lactose acetate:propionate 1:1/lactose isobutyrate co-formulated with either 25 wt % EtOH or 40 wt % triglyceride (GTO/GTH), with or without 10 wt % EtOH or 5 wt % PC (˜240 uL formulations in total). The DOPE-RhB solutions were made from a motherstock of 1 mg/mL DOPE-RhB in EtOH with serial dilution into EtOH/triglyceride (GTO/GTH). The injected formulations were imaged in PBS in 8-well microscope slides under the confocal microscope. […]
Laser Scanning Confocal Microscopy was performed using a Leica TCS SP5 Scanning Laser Confocal Microscope operated using a 61× wet objective and a 561 nm excitation DPPS Laser. Samples (˜5-10 uL) were prepared in 8 well microscope slides containing PBS buffer and imaged on the same day to study the distribution of fluorescence signal within the material. In case of Rhodamine B, emission was detected between 575 and 674 nm, while in case of carboxy fluorescein emission was detected between 480 and 580 nm. […]

CCCCCCCC/C=C\CCCCCCCC(=O)OC[C@H](COP(=O)(O)OCCNC(=O)c1ccc2c(c1)C(=O)OC21c2ccc(O)cc2Oc2cc(O)ccc21)OC(=O)CCCCCCC/C=C\CCCCCCCC.N.N [DOPE-CF]
Distribution of fluorophore labeled lipid in the marker: clearly higher distribution of DOPE-RhB and DOPE-CF in the rim of the injected formulation
